Test results taken from patent publication US20110172147A1, “NEUROPEPTIDE-2 RECEPTOR (Y-2R) AGONISTS” (priority 2009, published 2011).
Read-outs that look alike come from different tables or passages of the source.

How the values were obtained:
Type in all cases: cell-based
Y5R = molecular target: T1, Y5R (Homo sapiens, UniProt Q15761); experiment: CaFlux Assay (FLIPR), Y5R
T1 sequence (Q15761 1-445): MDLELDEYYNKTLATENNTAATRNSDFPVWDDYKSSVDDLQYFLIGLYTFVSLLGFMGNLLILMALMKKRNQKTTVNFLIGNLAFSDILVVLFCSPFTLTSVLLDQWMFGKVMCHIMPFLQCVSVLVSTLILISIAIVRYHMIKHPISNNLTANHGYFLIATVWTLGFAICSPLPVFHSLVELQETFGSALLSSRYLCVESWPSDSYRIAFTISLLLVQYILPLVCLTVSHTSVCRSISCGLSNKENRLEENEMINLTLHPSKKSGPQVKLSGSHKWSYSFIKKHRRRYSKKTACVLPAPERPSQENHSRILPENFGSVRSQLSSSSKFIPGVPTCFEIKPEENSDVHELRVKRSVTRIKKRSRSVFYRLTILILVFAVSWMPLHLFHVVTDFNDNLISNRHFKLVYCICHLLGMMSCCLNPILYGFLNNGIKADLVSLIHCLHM

hNPY2R = molecular target: T2, hNPY2R (Homo sapiens, UniProt P49146); experiment: cAMP Agonist Assay, HEK293/hNPY2R; set-up: expressed in transfected cells; host or cells: HEK293/hNPY2R (G418 selection)
T2 sequence (P49146 1-381): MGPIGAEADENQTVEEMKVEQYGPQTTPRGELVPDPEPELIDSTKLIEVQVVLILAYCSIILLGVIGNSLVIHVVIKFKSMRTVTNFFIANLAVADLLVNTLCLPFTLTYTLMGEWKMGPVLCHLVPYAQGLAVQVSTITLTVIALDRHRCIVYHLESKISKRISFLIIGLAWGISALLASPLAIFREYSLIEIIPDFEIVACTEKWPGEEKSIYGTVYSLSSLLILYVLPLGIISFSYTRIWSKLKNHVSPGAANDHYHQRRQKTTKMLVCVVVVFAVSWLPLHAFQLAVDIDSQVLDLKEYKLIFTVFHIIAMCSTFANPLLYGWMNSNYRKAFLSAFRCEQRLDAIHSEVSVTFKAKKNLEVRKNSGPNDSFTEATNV
Method in brief: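 Intracellular cAMP quantified by luminescent competitive ELISA after a 30 min room-temperature treatment of overnight-plated HEK293/hNPY2R cells with compound in medium containing 5 μM forskolin, 0.5 mM IBMX and 1.1% DMSO; four replicates per concentration.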

Y4R = Y4R (Homo sapiens, UniProt P50391); experiment: CaFlux Assay (FLIPR), Y4R
Y4R, sequence (P50391 whole entry): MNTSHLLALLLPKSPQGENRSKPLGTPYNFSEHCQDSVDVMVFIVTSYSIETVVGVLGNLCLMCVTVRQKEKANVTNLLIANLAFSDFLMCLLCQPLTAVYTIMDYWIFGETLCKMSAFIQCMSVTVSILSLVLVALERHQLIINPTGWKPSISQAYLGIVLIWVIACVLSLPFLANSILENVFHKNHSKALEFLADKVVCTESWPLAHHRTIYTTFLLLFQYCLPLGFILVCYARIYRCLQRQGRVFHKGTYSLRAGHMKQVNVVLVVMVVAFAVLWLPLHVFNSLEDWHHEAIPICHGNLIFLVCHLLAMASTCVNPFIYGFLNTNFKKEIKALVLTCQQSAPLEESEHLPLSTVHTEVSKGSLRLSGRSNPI

[1] = FLIPR; read-out: Y5R EC50 (nM) FLIPR
[2] = HEK293/hNPY2R cells, Forskolin 5 μM; read-out: Y2R EC50 (nM) cAMP
[3] = FLIPR; read-out: Y4R EC50 (nM) FLIPR

EC50 (Y5R; [1]) [nM]	EC50 (hNPY2R; [2]) [nM]	EC50 (Y4R; [3]) [nM]	Compound	EC50 (Y5R; read-out: Y5R EC50 (nM) FLIPR; FLIPR) [nM]	EC50 (hNPY2R; read-out: Y2R EC50 (nM) cAMP; HEK293/hNPY2R cells, Forskolin 5 μM) [nM]	EC50 (Y4R; read-out: Y4R EC50 (nM) FLIPR; FLIPR) [nM]
> 6000	1.29	> 6000	CC[C@H](C)[C@H](NC(C)=O)C(=O)N[C@@H](CCCCNC(=O)CCOCCOCCOCCOCCOCCOCCOCCOCCOCCOCCOCCOCCOCCOCCOCCOCCOCCOCCOCCOCCOCCOCCOCCOC)C(=O)N1CCN(c2ccc3ncn(CC(=O)N[C@@H](CCCNC(=N)N)C(=O)N[C@@H](Cc4c[nH]cn4)C(=O)N[C@@H](Cc4ccc(O)cc4)C(=O)N[C@@H](CC(C)C)C(=O)N[C@@H](CC(N)=O)C(=O)N[C@@H](Cc4c[nH]c5ccccc45)C(=O)N[C@H](C(=O)N[C@H](C(=O)N[C@@H](CCCNC(=N)N)C(=O)N[C@@H](CCC(N)=O)C(=O)N(C)[C@@H](CCCNC(=N)N)C(=O)N[C@@H](Cc4ccc(O)cc4)C(N)=O)[C@@H](C)O)C(C)C)c(=O)c3c2)CC1 [Example 21]			
> 6000	2.3	> 6000	CCCCCCCCCCCCCCCCCCCC(=O)N[C@@H](CCS(=O)(=O)O)C(=O)N[C@@H](CCS(=O)(=O)O)C(=O)NCCCC[C@H](NC(=O)[C@@H](NC(=O)CCOCCOCCOCCOCCOCCOCCOCCOCCOCCOCCOCCOCCOCCOCCOCCOCCOCCOCCOCCOCCOCCOCCOCCOC)[C@@H](C)CC)C(=O)N1CCN(c2ccc3ncn(CC(=O)N[C@@H](CCCNC(=N)N)C(=O)NC(Cc4c[nH]cn4)C(=O)N[C@@H](Cc4ccc(O)cc4)C(=O)NC(CC(C)C)C(=O)N[C@@H](CC(N)=O)C(=O)NC(Cc4c[nH]c5ccccc45)C(=O)N[C@H](C(=O)N[C@H](C(=O)N[C@@H](CCCNC(=N)N)C(=O)NC(CCC(N)=O)C(=O)N(C)[C@@H](CCCNC(=N)N)C(=O)NC(Cc4ccc(O)cc4)C(N)=O)[C@@H](C)O)C(C)C)c(=O)c3c2)CC1 (stereo partly drawn) [Example 27]			
> 6000	0.14	> 6000	CCCCCCCCCCCCCCCC(=O)N[C@@H](CCS(=O)(=O)O)C(=O)N[C@@H](CCS(=O)(=O)O)C(=O)NCCCC[C@H](NC(=O)[C@@H](NC(=O)CCOCCOCCOCCOCCOCCOCCOCCOCCOCCOCCOCCOCCOCCOCCOCCOCCOCCOCCOCCOCCOCCOCCOCCOC)[C@@H](C)CC)C(=O)N1CCN(c2ccc3ncn(CC(=O)N[C@@H](CCCNC(=N)N)C(=O)NC(Cc4c[nH]cn4)C(=O)N[C@@H](Cc4ccc(O)cc4)C(=O)NC(CC(C)C)C(=O)N[C@@H](CC(N)=O)C(=O)NC(Cc4c[nH]c5ccccc45)C(=O)N[C@H](C(=O)N[C@H](C(=O)N[C@@H](CCCNC(=N)N)C(=O)NC(CCC(N)=O)C(=O)N(C)[C@@H](CCCNC(=N)N)C(=O)NC(Cc4ccc(O)cc4)C(N)=O)[C@@H](C)O)C(C)C)c(=O)c3c2)CC1 (stereo partly drawn) [Example 29]			

The next lines start with the compound.

Compound	EC50 (Y5R; [1]) [nM]	EC50 (hNPY2R; [2]) [nM]	EC50 (Y4R; [3]) [nM]	EC50 (Y5R; read-out: Y5R EC50 (nM) FLIPR; FLIPR) [nM]	EC50 (hNPY2R; read-out: Y2R EC50 (nM) cAMP; HEK293/hNPY2R cells, Forskolin 5 μM) [nM]	EC50 (Y4R; read-out: Y4R EC50 (nM) FLIPR; FLIPR) [nM]
CCCCCCCCCCCCCCCCCCCC(=O)N[C@@H](CCS(=O)(=O)O)C(=O)N[C@@H](CCS(=O)(=O)O)C(=O)NCCCC[C@H](NC(=O)[C@@H](NC(=O)CCOCCOCCOCCOCCOCCOCCOCCOCCOCCOCCOCCOCCOCCOCCOCCOCCOCCOCCOCCOCCOCCOCCOCCOC)[C@@H](C)CC)C(=O)N1CCN(c2ccc3ncn(CC(=O)N[C@@H](CCCNC(N)=O)C(=O)NC(Cc4c[nH]cn4)C(=O)N[C@@H](Cc4ccc(O)cc4)C(=O)NC(CC(C)C)C(=O)N[C@@H](CC(N)=O)C(=O)NC(Cc4c[nH]c5ccccc45)C(=O)N[C@H](C(=O)N[C@H](C(=O)N[C@@H](CCCNC(=N)N)C(=O)NC(CCC(N)=O)C(=O)N(C)[C@@H](CCCNC(=N)N)C(=O)NC(Cc4ccc(O)cc4)C(N)=O)[C@@H](C)O)C(C)C)c(=O)c3c2)CC1 (stereo partly drawn) [Example 28]	1320	1.8	> 6000			
CCCCCCCCCCCCCCCCCCCC(=O)NCCCCCC(=O)N[C@H](C(=O)N[C@@H](CCCCNC(=O)CCOCCOCCOCCOCCOCCOCCOCCOCCOCCOCCOCCOCCOCCOCCOCCOCCOCCOCCOCCOCCOCCOCCOCCOC)C(=O)N1CCN(c2ccc3ncn(CC(=O)N[C@@H](CCCNC(=N)N)C(=O)N[C@@H](Cc4c[nH]cn4)C(=O)N[C@@H](Cc4ccc(O)cc4)C(=O)N[C@@H](CC(C)C)C(=O)N[C@@H](CC(N)=O)C(=O)N[C@@H](Cc4c[nH]c5ccccc45)C(=O)N[C@H](C(=O)N[C@H](C(=O)N[C@@H](CCCNC(=N)N)C(=O)N[C@@H](CCC(N)=O)C(=O)N(C)[C@@H](CCCNC(=N)N)C(=O)N[C@@H](Cc4ccc(O)cc4)C(N)=O)[C@@H](C)O)C(C)C)c(=O)c3c2)CC1)[C@@H](C)CC [Example 35]	1010	0.17	> 6000			
CC[C@H](C)[C@H](NC(=O)[C@H](CCC(=O)O)NC(=O)[C@H](CCC(=O)O)NC(=O)CCCCCCCCCCCCCCC(=O)O)C(=O)N[C@@H](CCCCNC(=O)CCOCCOCCOCCOCCOCCOCCOCCOCCOCCOCCOCCOCCOCCOCCOCCOC)C(=O)N1CCN(c2ccc3ncn(CC(=O)N[C@@H](CCCNC(=N)N)C(=O)N[C@@H](Cc4c[nH]cn4)C(=O)N[C@@H](Cc4ccc(O)cc4)C(=O)N[C@@H](CC(C)C)C(=O)N[C@@H](CC(N)=O)C(=O)N[C@@H](Cc4c[nH]c5ccccc45)C(=O)N[C@H](C(=O)N[C@H](C(=O)N[C@@H](CCCNC(=N)N)C(=O)N[C@@H](CCC(N)=O)C(=O)N(C)[C@@H](CCCNC(=N)N)C(=O)N[C@@H](Cc4ccc(O)cc4)C(N)=O)[C@@H](C)O)C(C)C)c(=O)c3c2)CC1 [Example 54]				> 6000	36	> 6000
